Entries after “also recorded” stand apart in the source; their conditions may differ. Like-named read-outs stand apart in the source and are kept apart here.

The values that follow come from patent US20210163453A1, “DERIVATIVES OF PAPAVERINE THAT ARE EFFECTIVE HYPOXIC TUMOR RADIOSENSITIZERS” (Ohio State Innovation Foundation, priority 2018, published 2021).

The test system of data set [1] is EO771 cells. It counts as cell-based, Murine. Particulars: for competition with rotenone on OCR: PPV given before rotenone; for inhibition of oxygen consumption (OCR), effective concentration (words): real time Seahorse XF dose response. Here is the method:
Error bars represent standard deviation.
FIGS. 2A-2D are OCR measurements and cell viability assessments. FIG. 2A-2B are representative of OCR measurement in competition assay between PPV and complex I inhibitors piericidin A (FIG. 2A) and capsaicin (FIG. 2B). Values represent the means+−SD. […] Bar charts represent mean of viable cells in duplicates+−standard deviation.
(§1) Seahorse analysis of the OCR. Oxygen consumption rate (OCR) was measured using Seahorse XF96 Flux Analyzer (Agilent Technologies). The cells were seeded to attach overnight, wells were washed with pre-warmed XF Calibrant (Agilent Technologies) and the replaced with unbuffered Assay Medium (pH 7.4, 5 mM glucose, 1 mM L-glutamine). The plates were incubated at 37° C. in a CO2-free incubator for 2 hours prior to assay. For succinate rescue assay, cells were permeabilized using XF Plasma Membrane Permeabilizer Reagent (XF PMP, Agilent Technologies) according to the manufacturer's instructions. The OCR rate was measured in 1× Mitochondrial Assay Solution (MAS) (70 mM sucrose, 220 mM mannitol, 10 mM KH2PO4, 5 mM MgCl2, 2 mM Hepes, 0.6% (w/v) fatty acid-free BSA and 1 mM EGTA; pH 7.4). After baseline oxygenation was established, 1 μM rotenone or 10 μM PPV was injected at time A, followed by 5 mM succinate at time B. Error bars represent standard deviation. For the washout experiment, EO771 cells were seeded overnight, then treated with 10 μM PPV or 1 μM rotenone 3 hours prior to OCR measurement. Media was replaced 1 and 2 hours before measurement and OCR reported.

The subject of data set [2] is cell lines of Table 1. In words: Cell lines tested for sensitivity to PPV (mitochondrial function). It is filed as cell-based, Human, Murine, Canine. Particulars: 29 cell lines: breast, colon, leukemia, lung, normal, osteosarcoma, pancreas, pharynx, tongue. The protocol: as §1
PPV was tested in vitro to determine if it could decrease mitochondrial function in all cells tested in minutes at low micromolar concentrations (Table 1, FIG. 1A).

In data set [3] the test system is oxygen consumption (mitochondrial function). In words: Seahorse XF analysis of oxygen consumption in vitro, cell line not stated. It is filed as cell-based. Here is the method:
as §1

Data set [4] deals with A549 cells. As to the kind of experiment: In vitro radiation survival (colony formation) of A549 cells. It is filed as cell-based, Human. Here is the method: FIGS. 4A-4G show tumor growth before and after radiosensitization with PPV. FIG. 4A-4B show in vitro radiation survival assessment of A549 cell line treated with […] PPV in normoxia (FIG. 4A) and anoxia (FIG. 4B). Normoxic cells were irradiated in triplicates on a cell culture dish, anoxic cells were irradiated in high density suspension after sealing with mineral oil 45 minutes before radiation. Values represent averaged colony counts+−standard deviation. FIG. 4C show quantification of tumor growth delay in orthotopic EO771 tumors gown in C57B16 mice receiving either 5 Gy XRT (magenta) or 2 mg/kg PPV 35 minutes prior to 5 Gy XRT (blue) (n=3-4). Values are mean tumor volumes+−SEM. […] Values are mean tumor volumes+−SEM. FIG. 4E-4F show tumor growth delay. When tumors reached 4-fold volume increase, groups receiving no treatment or PPV only (FIG. 4E); and XRT only or PPV followed by XRT (FIG. 4F), tumor weights were compared. Values are mean tumor weights+−SEM (n=8). P values were calculated with two-tailed two-sample t test. FIG. 4G are related to FIG. 4E-4F tumor growth delay.
A549 cells in suspension were treated with 5 μM PPV for one hour prior to radiation and plating in fresh media for colony formation post radiation. (N=2 experiments performed in triplicate). […]

Data set [5] has as its system A549 NDUFV1 KO NDI1 cells. It counts as cell-based, Human. Particulars: 10 μM papaverine or 1 μM rotenone.
The test system of data set [6] is NDUFV1 KO NDI1 flank xenografts. As to the kind of experiment: Tumor growth delay of NDUFV1 KO NDI1 flank xenografts with XRT. It is filed as in vivo, mice. To be noted: 2 mg/kg PPV 35 minutes prior to 8 Gy. Here is the method:
FIGS. 5A-5E show papaverine radiosensitizes through complex I inhibition. […] Values represent mean viable cells+−SD. […] Values are mean+−SD. […] P value was calculated with two-tailed two-sample t test. […] Curves represent mean tumor volumes+−SEM.
FIGS. 6A-6E show uncropped western blot membrane used for FIG. 5A showing NDUFV1 and PDH E1α levels (FIG. 6A) before probing for NDI1 (FIG. 6B). […] Values represent mean OCR from at least 5 replicates+−SD. […] Curves represent averaged colony counts+−SD. […] Values are mean tumor volumes+−SEM.
Tumor Growth kinetics. 2×10^6 EO771 or 5×10^6 A549 cells were injected s.c. into the flanks of 6-week old female immunocompetent C57/B6 (EO771) or immunocompromised nu/nu (A549) mice. Caliper measurements of opposing diameter were used to calculate the tumor volumes. Upon reaching […], the tumors were visualized by cone beam CT and treatment plans calculated using SARRP software. […] Tumor volumes were measured until the post treatment volume increased 3-fold. Error bars represent standard deviation.

The conditions of data set [7]: cited from earlier work.
The target in data set [8] is T1, PDE10A (Homo sapiens, UniProt Q9Y233).
T1 construct: purchased BPS Bioscience
T1 sequence (Q9Y233 267-1055): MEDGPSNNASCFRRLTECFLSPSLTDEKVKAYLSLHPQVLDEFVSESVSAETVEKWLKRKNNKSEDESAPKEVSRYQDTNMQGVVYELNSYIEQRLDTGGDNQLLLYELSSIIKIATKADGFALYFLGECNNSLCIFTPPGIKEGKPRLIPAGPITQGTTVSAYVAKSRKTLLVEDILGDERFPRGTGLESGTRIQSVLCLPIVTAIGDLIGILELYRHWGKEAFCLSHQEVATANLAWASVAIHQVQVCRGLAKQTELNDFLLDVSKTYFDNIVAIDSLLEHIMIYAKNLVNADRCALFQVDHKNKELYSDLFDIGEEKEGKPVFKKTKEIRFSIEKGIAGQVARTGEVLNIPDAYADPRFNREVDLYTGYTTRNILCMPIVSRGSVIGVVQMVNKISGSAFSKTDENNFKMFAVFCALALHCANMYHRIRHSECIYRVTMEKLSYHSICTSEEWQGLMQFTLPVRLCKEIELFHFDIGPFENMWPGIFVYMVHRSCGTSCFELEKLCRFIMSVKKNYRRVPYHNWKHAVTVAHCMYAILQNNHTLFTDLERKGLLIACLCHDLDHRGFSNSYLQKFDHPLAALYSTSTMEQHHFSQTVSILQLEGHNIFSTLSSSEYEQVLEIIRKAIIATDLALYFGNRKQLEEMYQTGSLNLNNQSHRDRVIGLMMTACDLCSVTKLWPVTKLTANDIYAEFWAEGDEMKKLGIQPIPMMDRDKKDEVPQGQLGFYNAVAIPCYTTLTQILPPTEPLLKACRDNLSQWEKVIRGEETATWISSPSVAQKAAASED
In words: PDE10A enzymatic assay (PDE10A activity assay kit, BPS Bioscience). It is filed as biochemical. The protocol:
FIGS. 7A-7D show OCR and cellular toxicity data. […] Bars represent mean OCR and PDE10 inhibitory activities from at least 5 (OCR) or 3 (PDE) replicates. All experiments were repeated at least twice. […] Values are mean+−SEM. […]
The structure activity relationship of PPV relative to two assays was assessed: inhibition of cellular OCR by Seahorse, and inhibition of PDE10A by purified enzyme activity in multiwell plate (PDE10A activity assay kit, BPS Bioscience). […] These lead compounds were synthesized from commercial precursors and purified on silica gel column.

On to `COc1ccc(Cc2nccc3cc(OC)c(OC)cc23)cc1OC` [PPV, papaverine], for which the “efficiency at rotenone binding pocket relative to rotenone” value in data set [1] is “approximately 100 × lower efficiency”. For the same molecule, the “competition with rotenone on OCR” value in data set [1] is “block the activity of the classical complex 1 inhibitor rotenone”; in data set [1] (listed as papaverine), “blocked rotenone's inhibitory activity”. Besides, the “interaction with complex 1 inhibitors piericidin A or capsaicin” value in data set [1] (competition assay) is given as “no interaction”. In addition, the “inhibition of oxygen consumption (OCR), effective concentration (words)” value in data set [1] is on record as “effective at low micromolar concentrations”; in data set [1] (listed as Papaverine) it was “rapidly inhibited oxygen consumption at low micromolar concentrations”. For the same molecule, the “sensitivity to PPV” value in data set [2] was “List of cell lines positively tested for sensitivity to PPV”. For the same molecule, the “inhibition of oxygen consumption / mitochondrial function in vitro” value in data set [3] was “effective at inhibiting oxygen consumption”. Moreover, the “colony survival after radiation” value in data set [4] (5 μM papaverine for one hour prior to radiation) was “did not have any effect on colony survival; also recorded: not an inherent radiosensitizer”. In addition, the “surviving fraction of irradiated cells” value in data set [4] (10 μM PPV, normoxia and anoxia) is listed as “did not change the surviving fraction”. The “response of mitochondria (OCR) to drug” value in data set [5] is listed as “resistant”. Also, the “radiation growth delay with drug” value in data set [6] is “resistant to PPV dependent increase in radiation growth delay”. Besides, in data set [7] (Ritschel et al.), the expected half-life is 1.5 to 2 h. Moreover, the “half-life, cleared from the serum” value in data set [7] (in vivo) is 1.5 to 2 h.
By IC20 is commonly meant the point of the concentration-response curve where the effect stands at 20%. As to `COc1cc2ccnc(Cc3cccc4ccccc34)c2cc1OC` [SMV-32], the IC20 in data set [8] (PDE10A2 enzymatic assay, n=3 replicates, read-out: PDE IC20 (PDE10A IC20)) is 12 µM. Moreover, the “Inhibitory activity PDE10A % of PPV” value in data set [8] (PDE10A inhibition at 1 μM, normalized to PPV) is listed as 38.66 % of PPV. In data set [8] (compared to PPV), the “PDE10 activity compared to PPV” value is recorded as 40%.
